Data as given in patent publication US20060046976A1, “Method for increasing the bone mineral density and bone micro-architecture or connectivity of a mammal using N-acylated glucosamines” (priority 2004, published 2006).

Experiments:
[1] = test system: non-ovariectomised animals; assay: BMD by DXA in non-ovariectomised rats fed GlcNBu; assay type: in vivo, rat; settings: 200 mg GlcNBu daily, not statistically significant, data not shown
Description: (§1) Sixteen ovariectomised rats (Charles River Laboratories), approximately 200 g in weight, were randomized into two groups. The control group received 200 mg of glucose, by mouth as single daily doses and the GlcNBu-treated group received 200 mg of GlcNBu by mouth, as single daily doses, for a total period of six (6) months. A similar group of non-ovariectomised animals was fed with GlcNBu or glucose at the same doses. The feeding of the compounds was done in small amounts of peanut butter which was very acceptable to the rats, which were allowed free access to water and rat chow. The animals had the BMDs of the femurs (total or global BMD) and the lumbar spines were estimated at baseline and then at, approximately 2, 4 and 6 months. Consistent position of the femurs was assured with a pre-determined grid. A Hologic 4500 DXA machine, with small animal software, was employed for the study. The animals were lightly anesthetized for each measurement.

ovariectomised rats = assay: Wet weight of femurs, ovariectomised rats; assay type: in vivo, rat; settings: ovariectomised animals, oral feeding of GlcNBu, 6 months
Description: as §1
At the end of the experiment, the animals were sacrificed, plasma was collected by cardiac puncture, and the femurs removed, fully dissected from adherent tissue and the wet weight was determined. The concentrations of Insulin-like Growth factor I (IGF-1) in the plasma, obtained at the end of the experiment, were determined by a commercial immunological method.

SCW-arthritis rats = assay: BMD by DXA of femurs and tibias in SCW-arthritis rats; assay type: in vivo, Lewis type rats; settings: 6 weeks
Excerpt: In this experiment performed and described herein, there were four groups of Lewis type rats, consisting of eight (8) animals in each group. Lewis type rats had experimental arthritis induced by a single intra-peritoneal injection of streptococcal cell wall antigen (SCW). This type of arthritis has an acute and chronic phase and affects mostly the distal joints in the hind limbs of the animals, and, less so, the knees and hips. Groups 1-3, inclusive, had inflammatory arthritis induced. The compound used in the experiment was used to supplement normal rat chow feed on a daily basis. Feed and water were unrestricted. Group I feed was supplemented with the compound shown in formula II, abbreviated as GlcNBu, at a dose of 200mg/kg/day. […] All the dissected femurs and tibiae were scanned with dual energy x-ray absorptiometry (DXA) were measured at the distal femur, and proximal tibia using a user defined region of interest (ROI). • Micro-CT imaging protocol. […] The reconstructed tibia images were analyzed with MicroView 2.0 software (GE Healthcare, London, ON) in two and three dimensions. • Three-dimensional trabecular bone measurements. […] On 3D analysis, the tissue volume (3D-TV, mm3) and trabecular bone volume (3D-BV, mm3) were measured directly, and the fractional trabecular bone volume (3D-BV/TV, %) was calculated. […]

## CCCC(=O)N[C@H]1C(O)O[C@H](CO)[C@@H](O)[C@@H]1O (stereo partly drawn) [GlcNBu, N-butyryl-D-glucosamine]
[1]
  BMD at the sites measured vs glucose-fed animals: higher trends in the BMD
Ovariectomised rats
  femoral wet weight: increases femoral wet weight
SCW-arthritis rats; 200 mg/kg/day in feed
  BMD femurs and tibias, Group I (GlcNBu 200 mg) vs Group 3 (GlcNBu 20 mg): much greater
SCW-arthritis rats; 200 mg/kg/day
  BMD differences between Group 1 (GlcNBu 200 mg) and other Groups: Statistical significance of the differences was achieved
